One experiment has as its target JAK3 enzyme (Homo sapiens (Human), UniProt P52333). Kind of experiment: JAK3 isolated enzyme high ATP Caliper endpoint assay. Conditions: 400 μM ATP, read-out: JAK-3 IC50. It counts as biochemical.
Another experiment deals with JAK1 enzyme (Homo sapiens (Human), UniProt P23458). Nature of the experiment: JAK1 isolated enzyme high ATP Caliper endpoint assay.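 Further: enzyme at 10 nM preincubated with inhibitor 30 min, then kinase reaction 120 min at room temperature, peptide phosphorylation read by microfluidic mobility shift with fluorescence, inhibition relative to HPE and ZPE plate controls.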 It counts as biochemical. Conditions: 2.5 mM ATP, read-out: JAK-1 IC50.
JAK1 enzyme, sequence (P23458 whole entry): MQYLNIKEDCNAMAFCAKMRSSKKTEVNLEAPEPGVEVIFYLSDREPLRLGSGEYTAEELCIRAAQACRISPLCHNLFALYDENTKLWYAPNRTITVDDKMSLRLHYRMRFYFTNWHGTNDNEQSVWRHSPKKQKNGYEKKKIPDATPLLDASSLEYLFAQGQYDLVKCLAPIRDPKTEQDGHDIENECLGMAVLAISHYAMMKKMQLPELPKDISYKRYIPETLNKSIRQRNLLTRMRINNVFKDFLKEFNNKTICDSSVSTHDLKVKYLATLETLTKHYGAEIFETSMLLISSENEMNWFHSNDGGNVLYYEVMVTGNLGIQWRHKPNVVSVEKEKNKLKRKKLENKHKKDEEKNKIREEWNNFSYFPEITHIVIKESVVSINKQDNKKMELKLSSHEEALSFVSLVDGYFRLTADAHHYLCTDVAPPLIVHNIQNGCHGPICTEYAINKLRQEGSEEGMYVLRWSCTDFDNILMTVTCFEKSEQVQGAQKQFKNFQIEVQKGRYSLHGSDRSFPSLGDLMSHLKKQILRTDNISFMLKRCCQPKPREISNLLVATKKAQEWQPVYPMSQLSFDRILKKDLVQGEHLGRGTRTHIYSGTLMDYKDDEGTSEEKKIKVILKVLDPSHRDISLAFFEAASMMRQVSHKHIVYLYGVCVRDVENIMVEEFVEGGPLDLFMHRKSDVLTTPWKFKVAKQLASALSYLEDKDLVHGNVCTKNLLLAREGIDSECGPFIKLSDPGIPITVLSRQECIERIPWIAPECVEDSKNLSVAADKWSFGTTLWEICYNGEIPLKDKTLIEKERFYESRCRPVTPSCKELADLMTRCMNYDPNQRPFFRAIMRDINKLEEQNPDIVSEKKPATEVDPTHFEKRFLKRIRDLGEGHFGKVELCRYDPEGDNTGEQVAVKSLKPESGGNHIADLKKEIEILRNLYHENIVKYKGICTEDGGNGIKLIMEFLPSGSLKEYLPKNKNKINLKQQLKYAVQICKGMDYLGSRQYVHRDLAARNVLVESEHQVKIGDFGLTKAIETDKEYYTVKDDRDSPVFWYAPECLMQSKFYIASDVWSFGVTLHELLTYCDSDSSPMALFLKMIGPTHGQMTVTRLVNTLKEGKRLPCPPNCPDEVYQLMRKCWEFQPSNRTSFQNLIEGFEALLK

Where a name gives a salt, the structure may show the parent alone.

This is an account of results in US8895544B2, “Indazoles” (Pfizer Limited, priority 2011, dated 2014).

JAK3 enzyme, sequence (P52333 whole entry): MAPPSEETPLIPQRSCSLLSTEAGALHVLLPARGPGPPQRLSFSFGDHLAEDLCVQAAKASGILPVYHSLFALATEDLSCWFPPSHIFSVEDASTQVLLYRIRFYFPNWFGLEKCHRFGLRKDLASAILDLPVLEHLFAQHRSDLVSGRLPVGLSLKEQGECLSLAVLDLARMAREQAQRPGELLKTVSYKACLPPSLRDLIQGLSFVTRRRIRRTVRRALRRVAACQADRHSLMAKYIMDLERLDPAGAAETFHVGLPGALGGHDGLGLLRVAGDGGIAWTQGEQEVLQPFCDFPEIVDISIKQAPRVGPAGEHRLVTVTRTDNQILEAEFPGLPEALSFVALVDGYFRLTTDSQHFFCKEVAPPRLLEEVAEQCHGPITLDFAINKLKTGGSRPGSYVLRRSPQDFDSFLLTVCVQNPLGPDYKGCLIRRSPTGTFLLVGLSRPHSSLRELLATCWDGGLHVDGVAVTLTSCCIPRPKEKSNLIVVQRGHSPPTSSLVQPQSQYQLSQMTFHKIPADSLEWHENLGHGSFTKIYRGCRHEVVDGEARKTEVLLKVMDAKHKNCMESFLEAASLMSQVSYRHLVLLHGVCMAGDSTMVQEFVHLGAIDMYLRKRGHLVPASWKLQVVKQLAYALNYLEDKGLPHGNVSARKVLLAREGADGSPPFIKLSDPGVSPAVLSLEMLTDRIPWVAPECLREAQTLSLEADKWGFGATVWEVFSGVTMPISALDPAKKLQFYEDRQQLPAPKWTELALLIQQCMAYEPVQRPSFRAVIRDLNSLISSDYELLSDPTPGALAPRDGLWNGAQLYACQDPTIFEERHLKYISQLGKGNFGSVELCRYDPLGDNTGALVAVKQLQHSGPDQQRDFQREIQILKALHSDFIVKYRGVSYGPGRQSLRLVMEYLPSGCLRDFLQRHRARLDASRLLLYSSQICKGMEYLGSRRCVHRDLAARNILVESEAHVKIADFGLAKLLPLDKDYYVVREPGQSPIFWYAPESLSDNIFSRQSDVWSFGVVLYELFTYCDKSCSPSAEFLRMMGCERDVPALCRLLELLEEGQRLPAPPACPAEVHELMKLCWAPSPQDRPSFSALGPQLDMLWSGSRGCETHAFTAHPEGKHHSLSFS
Protocol for JAK1 enzyme: JAK1 Isolated Enzyme High ATP Caliper Endpoint Assay
4 mM stock solutions of test compounds are prepared and serially diluted in 100% DMSO. A standard curve using PF-00956980 (commercially available from Sigma Aldrich) at a top concentration of 4 mM is also prepared. High percentage effect (HPE) is defined by 500 μM PF-00956980 and 0% effect (ZPE) is defined by 100% DMSO. Greiner 384 well plates are prepared containing 400 nl of serially diluted compound, standard and HPE/ZPE. Final top assay concentration is 80 μM as the assay dilution factor is fifty.
JAK1 enzyme (Invitrogen) stock solution is made up at 5.2 μM in sterile water. JAK1 enzyme stock is diluted to 20 nM in assay buffer (10 mM HEPES free acid pH 7.5, 10 mM HEPES free base pH 7.5, 10 mM MgCL2, 0.0005% Tween-20, 0.01% BSA) containing 2 mM DTT (all supplied by Sigma) with the addition of one protease tablet per 25 mls buffer (Roche). ATP is made up at 10 mM stock in sterile water and diluted to 5 mM in assay buffer. Peptide H236 (Caliper Life Sciences) is made up at 1.5 mM in 100% DMSO and diluted to 3 μM in assay buffer. Stop buffer comprises 140 mM HEPES, 22.5 mM EDTA (Sigma) and 0.15% coating reagent (Caliper Life Sciences).
Assays are performed in Greiner polypropylene 384 well plates. Following compound preparation within the plate 10 μl of enzyme in assay buffer containing DTT is added using a Multidrop Micro. Final assay concentration of enzyme is 10 nM. Compound and enzyme are pre-incubated for 30 minutes at room temperature using low evaporation lids before addition of 10 μl ATP/peptide mixture in assay buffer using a Multidrop Micro. Final assay concentrations are 2.5 mM ATP and 1.5 μM peptide. Plates are foil sealed and incubated for a further 120 minutes at room temperature. Stop solution is added to the plates (20 μl/well) using a Multidrop Micro and plates are loaded onto the Caliper EZReader II. Data is generated by the shift in mobility of non-phosphorylated peptide substrates and phosphorylated products by electrophoresis within a chip and detected via LED induced fluorescence. Data is analysed using LabChip EZReader software which calculates the relative heights of the substrate and product peaks and reports product/product plus substrate peak ratio. Test compound data are subsequently expressed as percentage inhibition defined by HPE and ZPE values for each plate. Percentage inhibition in the presence of test compound is plotted against compound concentration on a log scale to determine an IC50 from the resultant sigmoid curve.
Protocol for JAK3 enzyme: JAK3 Isolated Enzyme High ATP Caliper Endpoint Assay
4 mM stock solutions of test compounds are prepared and serially diluted in 100% DMSO. […] Greiner 384 well plates are prepared containing 400 nl of serially diluted compound, standard and HPE/ZPE. Final top assay concentration is 80 μM as the assay dilution factor is fifty.
JAK3 enzyme stock is diluted to 2 nM in assay buffer (10 mM HEPES free acid pH 7.5, 10 mM HEPES free base pH 7.5, 10 mM MgCL2, 0.0005% Tween-20, 0.01% BSA) containing 2 mM DTT (all supplied by Sigma). ATP is made up at 10 mM stock in sterile water and diluted to 800 μM in assay buffer. Peptide (American peptide company) is made up at 30 mM in 100% DMSO and diluted to 3 μM in assay buffer.
Assays are performed in Greiner polypropylene 384 well plates. Following compound preparation within the plate 10 μl of enzyme in assay buffer containing DTT is added using a Multidrop Micro. Final assay concentration of enzyme is 1 nM. Compound and enzyme are pre-incubated for 60 minutes at room temperature using low evaporation lids before addition of 10 μl ATP/peptide mixture in assay buffer using a Multidrop Micro. […] Plates are foil sealed and incubated for a further 60 minutes at room temperature. Stop solution is added to the plates (20 μl/well) using a Multidrop Micro and plates are loaded onto the Caliper EZReader II. Data is generated by the shift in mobility of non-phosphorylated peptide substrates and phosphorylated products by electrophoresis within a chip and detected via LED induced fluorescence. Data is analysed using LabChip EZReader software which calculates the relative heights of the substrate and product peaks and reports product/product plus substrate peak ratio. Test compound data are subsequently expressed as percentage inhibition defined by HPE and ZPE values for each plate. Percentage inhibition in the presence of test compound is plotted against compound concentration on a log scale to determine an IC50 from the resultant sigmoid curve.

In general, IC50 refers to the point on the concentration scale where inhibition reaches its midpoint. On to `O=C(c1ccc(F)cc1)N1CCc2[nH]c(-c3n[nH]c4cc(-c5cc(F)c(O)cc5CC(F)(F)F)ccc34)nc2C1` [Example 30, (2-{6-[5-Fluoro-4-hydroxy-2-(2,2,2-trifluoro-ethyl)-phenyl]-1H-indazol-3-yl}-1,4,6,7-tetrahydro-imidazo[4,5-c]pyridin-5-yl)-(4-fluoro-phenyl)-methanone diethylamine salt], for which the concentration for half-maximal inhibition (IC50) on JAK3 enzyme came to 6.7 nM; at JAK1 enzyme, 7.7 nM.
For `CCc1cc(O)c(F)cc1-c1ccc2c(-c3nc4c([nH]3)CCN(C(=O)c3ccsn3)C4)n[nH]c2c1` [Example 2, {2-[6-(2-Ethyl-5-fluoro-4-hydroxy-phenyl)-1H-indazol-3-yl]-1,4,6,7-tetrahydro-imidazo[4,5-c]pyridin-5-yl}-isothiazol-3-yl-methanone], the 50% inhibitory concentration (IC50) on JAK3 enzyme was found to be 0.5 nM; at JAK1 enzyme, 46 nM.
As to `CCc1cc(O)c(F)cc1-c1ccc2c(-c3nc4c([nH]3)CCN(C(=O)c3ccc(Cl)cn3)CC4)n[nH]c2c1` [Example 8, (5-Chloro-pyridin-2-yl)-{2-[6-(2-ethyl-5-fluoro-4-hydroxy-phenyl)-1H-indazol-3-yl]-4,5,7,8-tetrahydro-1H-imidazo[4,5-d]azebin-6-yl}-methanone], the concentration for half-maximal inhibition (IC50) on JAK3 enzyme amounted to 1.4 nM; on JAK1 enzyme, 2.9 nM.
Taken in the same sequence, the figures for `CCc1cc(O)c(F)cc1-c1ccc2c(-c3nc4c([nH]3)CCN(C(=O)c3ccsn3)CC4)n[nH]c2c1` [Example 11, {2-[6-(2-Ethyl-5-fluoro-4-hydroxy-phenyl)-1H-indazol-3-yl]-4,5,7,8-tetrahydro-1H-imidazo[4,5-d]azepin-6-yl}-isothiazol-3-yl-methanone] were 1 nM and 2.5 nM.
Take `CCc1cc(O)c(F)cc1-c1ccc2c(-c3nc4c([nH]3)CCN(Cc3ccc(N5CCCCC5)nc3)C4)n[nH]c2c1` [Example 25, 5-Ethyl-2-fluoro-4-{3-[5-(3,4,5,6-tetrahydro-2H-[1,2′]bipyridinyl-5′-ylmethyl)-4,5,6,7-tetrahydro-1H-imidazo[4,5-c]pyridin-2-yl]-1H-indazol-6-yl}-phenol]: the concentration for half-maximal inhibition (IC50) at JAK1 enzyme turned out to be 4 nM.
For the molecule `CCc1cc(O)c(F)cc1-c1ccc2c(-c3nc4c([nH]3)CCN(C(=O)c3ccc(F)cc3)CC4)n[nH]c2c1` [Example 10, {2-[6-(2-Ethyl-5-fluoro-4-hydroxy-phenyl)-1H-indazol-3-yl]-4,5,7,8-tetrahydro-1H-imidazo[4,5-d]azepin-6-yl}-(4-fluoro-phenyl)-methanone], the IC50 on JAK3 enzyme came to 1.3 nM; on JAK1 enzyme it was 4.5 nM.
Consider `CCc1cc(O)c(F)cc1-c1ccc2c(-c3nc4c([nH]3)CCN(Cc3cccc(O)c3)C4)n[nH]c2c1` [Example 20, 5-Ethyl-2-fluoro-4-{3-[5-(3-hydroxy-benzyl)-4,5,6,7-tetrahydro-1H-imidazo[4,5-c]pyridin-2-yl]-1H-indazol-6-yl}-phenol], for which the IC50 stood at 5.6 nM on JAK3 enzyme and 2.6 nM at JAK1 enzyme.
In the case of `CCc1cc(O)c(F)cc1-c1ccc2c(-c3nc4c([nH]3)CCN(C(=O)c3ccc(F)cc3)C4)n[nH]c2c1` [Example 1, {2-[6-(2-Ethyl-5-fluoro-4-hydroxy-phenyl)-1H-indazol-3-yl]-1,4,6,7-tetrahydro-imidazo[4,5-c]pyridin-5-yl}-(4-fluoro-phenyl)-methanone], the 50% inhibitory concentration (IC50) at JAK3 enzyme is less than 0.6 nM; at JAK1 enzyme, less than 0.7 nM.
Taken in the same sequence, the figures for `Oc1cc(CC(F)(F)F)c(-c2ccc3c(-c4nc5c([nH]4)CCN(Cc4ccccc4)C5)n[nH]c3c2)cc1F` [Example 31, 4-[3-(5-Benzyl-4,5,6,7-tetrahydro-1H-imidazo[4,5-c]pyridin-2-yl)-1H-indazol-6-yl]-2-fluoro-5-(2,2,2-trifluoro-ethyl)-phenol diethylamine salt] were 186 nM and 66 nM.
For `CCc1cc(O)c(F)cc1-c1ccc2c(-c3nc4c([nH]3)CCN(Cc3ccc5cccnc5n3)C4)n[nH]c2c1` [Example 28, 5-Ethyl-2-fluoro-4-[3-(5-[1,8]naphthyridin-2-ylmethyl-4,5,6,7-tetrahydro-1H-imidazo[4,5-c]pyridin-2-yl)-1H-indazol-6-yl]-phenol] the same measures were 10.9 nM and 13.7 nM.
For `CCc1cc(O)c(F)cc1-c1ccc2c(-c3nc4c([nH]3)CCN(Cc3ccccc3)CC4)n[nH]c2c1` [Example 14, 4-[3-(6-Benzyl-1,4,5,6,7,8-hexahydro-imidazo[4,5-d]azepin-2-yl)-1H-indazol-6-yl]-5-ethyl-2-fluoro-phenol] the same measures were 1.4 nM and 0.8 nM.
`CCc1cc(O)c(F)cc1-c1ccc2c(-c3nc4c([nH]3)CCN(S(=O)(=O)c3ccc(F)cc3)C4)n[nH]c2c1` [Example 12, 5-Ethyl-2-fluoro-4-{3-[5-(4-fluoro-benzenesulfonyl)-4,5,6,7-tetrahydro-1H-imidazo[4,5-c]pyridin-2-yl]-1H-indazol-6-yl}-phenol]: the figures for the 50% inhibitory concentration (IC50) at JAK3 enzyme and at JAK1 enzyme were 1.6 nM and 1.2 nM, respectively.
Regarding `CCc1cc(O)c(F)cc1-c1ccc2c(-c3nc4c([nH]3)CCN(S(=O)(=O)c3ccc(Oc5ccccc5)nc3)C4)n[nH]c2c1` [Example 7, 5-Ethyl-2-fluoro-4-{3-[5-(6-phenoxy-pyridine-3-sulfonyl)-4,5,6,7-tetrahydro-1H-imidazo[4,5-c]pyridin-2-yl]-1H-indazol-6-yl}-phenol], the half-inhibitory concentration (IC50) at JAK3 enzyme is 1.5 nM; at JAK1 enzyme, 2.5 nM.
For `CCc1cc(O)c(F)cc1-c1ccc2c(-c3nc4c([nH]3)CCN(Cc3ccc(Oc5ccccc5)nc3)C4)n[nH]c2c1` [Example 24, 5-Ethyl-2-fluoro-4-{3-[5-(6-phenoxy-pyridin-3-ylmethyl)-4,5,6,7-tetrahydro-1H-imidazo[4,5-c]pyridin-2-yl]-1H-indazol-6-yl}-phenol] the same measures were 2.4 nM and 6.2 nM.
Regarding `CCc1cc(O)c(F)cc1-c1ccc2c(-c3nc4c([nH]3)CCN(S(=O)(=O)c3ccc(N5CCOCC5)nc3)C4)n[nH]c2c1` [Example 6, 5-Ethyl-2-fluoro-4-{3-[5-(6-morpholin-4-yl-pyridine-3-sulfonyl)-4,5,6,7-tetrahydro-1H-imidazo[4,5-c]pyridin-2-yl]-1H-indazol-6-yl}-phenol], the IC50 on JAK3 enzyme is 1.3 nM; at JAK1 enzyme, 8.4 nM.
Turning to `CCc1cc(O)c(F)cc1-c1ccc2c(-c3nc4c([nH]3)CCN(C(=O)c3cc(C#N)ccn3)CC4)n[nH]c2c1` [Example 9, 2-{2-[6-(2-Ethyl-5-fluoro-4-hydroxy-phenyl)-1H-indazol-3-yl]-4,5,7,8-tetrahydro-1H-imidazo[4,5-d]azepine-6-carbonyl}-isonicotinonitrile], the values for the IC50 at JAK3 enzyme and at JAK1 enzyme were 1.9 nM and 18.9 nM, respectively.
In the case of `CCc1cc(O)c(F)cc1-c1ccc2c(-c3nc4c([nH]3)CCN(C(=O)c3ccc(Cl)cn3)C4)n[nH]c2c1` [Example 15, (5-Chloro-pyridin-2-yl)-{2-[6-(2-ethyl-5-fluoro-4-hydroxy-phenyl)-1H-indazol-3-yl]-1,4,6,7-tetrahydro-imidazo[4,5-d]pyridin-5-yl}-methanone], the IC50 at JAK3 enzyme came to 1 nM.
As for “{2-[6-(2-Ethyl-5-fluoro-4-hydroxy-phenyl)-1H-indazol-3-yl]-1,4,6,7-tetrahydro-imidazo[4,5-c]pyridin-5-yl}-isothiazol-3-yl-methanone [Example 3]”, the half-maximal inhibitory concentration (IC50) on JAK1 enzyme is 3.7 nM.
With `O=C(c1cnc(N2CCCCC2)cn1)N1CCc2[nH]c(-c3n[nH]c4cc(-c5cc(F)c(O)cc5CC(F)(F)F)ccc34)nc2C1` [Example 29, (2-{6-[5-Fluoro-4-hydroxy-2-(2,2,2-trifluoro-ethyl)-pheny]-1H-indazol-3-yl}-1,4,6,7-tetrahydro-imidazo[4,5-c]pyridin-5-yl)-(5-piperidin-1-yl-pyrazin-2-yl)-methanone diethylamine salt], the half-maximal inhibitory concentration (IC50) at JAK3 enzyme is 42 nM; at JAK1 enzyme, 1.1 nM.
`CCc1cc(O)c(F)cc1-c1ccc2c(-c3nc4c([nH]3)CCN(C(=O)c3cnc(Oc5ccccc5F)cn3)C4)n[nH]c2c1` [Example 13, {2-[6-(2-Ethyl-5-fluoro-4-hydroxy-phenyl)-1H-indazol-3-yl]-1,4,6,7-tetrahydro-imidazo[4,5-c]pyridin-5-yl}-[5-(2-fluoro-phenoxy)-Dvrazin-2-yl]-methanone]: the IC50 on JAK3 enzyme is 3.6 nM; on JAK1 enzyme, 1.5 nM.
With `CCc1cc(O)c(F)cc1-c1ccc2c(-c3nc4c([nH]3)CCN(Cc3cccc(OC)c3)C4)n[nH]c2c1` [Example 22, 5-Ethyl-2-fluoro-4-{3-[5-(3-methoxy-benzyl)-4,5,6,7-tetrahydro-1H-imidazo[4,5-c]pyridin-2-yl]-1H-indazol-6-yl}-phenol formic acid salt], the IC50 on JAK3 enzyme amounted to 2.6 nM; at JAK1 enzyme, 3 nM.
Taken in the same sequence, the figures for `CCc1cc(O)c(F)cc1-c1ccc2c(-c3nc4c([nH]3)CCN(Cc3ccnc(C#N)c3)C4)n[nH]c2c1` [Example 21, 4-{2-[6-(2-Ethyl-5-fluoro-4-hydroxy-phenyl)-1H-indazol-3-yl]-1,4,6,7-tetrahydro-imidazo[4,5-c]pyridin-5-ylmethyl}-pyridine-2-carbonitrile] were 1.4 nM and 5.9 nM.
As for `CCc1cc(O)c(F)cc1-c1ccc2c(-c3nc4c([nH]3)CCN(Cc3cnc5ccccc5c3)C4)n[nH]c2c1` [Example 23, 5-Ethyl-2-fluoro-4-[3-(5-quinolin-3-ylmethyl-4,5,6,7-tetrahydro-1H-imidazo[4,5-c]pyridin-2-yl)-1H-indazol-6-yl]-phenol], the 50% inhibitory concentration (IC50) on JAK3 enzyme was 1.2 nM; at JAK1 enzyme, 1.7 nM.
Taken in the same sequence, the figures for `CCc1cc(O)c(F)cc1-c1ccc2c(-c3nc4c([nH]3)CCN(C(=O)c3ccc(C#N)nc3)C4)n[nH]c2c1` [Example 16, 5-{2-[6-(2-Ethyl-5-fluoro-4-hydroxy-phenyl)-1H-indazol-3-yl]-1,4,6,7-tetrahydro-imidazo[4,5-c]pyridine-5-carbonyl}-pyridine-2-carbonitrile] were 1.9 nM and 0.7 nM.
For the molecule `CCc1cc(O)c(F)cc1-c1ccc2c(-c3nc4c([nH]3)CCN(Cc3cccnc3C#N)C4)n[nH]c2c1` [Example 26, 3-{2-[6-(2-Ethyl-5-fluoro-4-hydroxy-phenyl)-1H-indazol-3-yl]-1,4,6,7-tetrahydro-imidazo[4,5-c]pyridin-5-ylmethyl}-pyridine-2-carbonitrile], the figures for the IC50 at JAK3 enzyme and on JAK1 enzyme were 4.1 nM and 4 nM, respectively.
